For 35 molecules, inhibition and IC50 results are on record in patent US20240350643A1, “PROTEIN DEGRADATION AGENT” (SUZHOU KINTOR PHARMACEUTICALS, INC., priority 2021, published 2024).

One experiment has as its target T1, c-Myc protein (Homo sapiens, UniProt P01106).
T1 construct: endogenous in cells; host or cells: HL60 cells
Kind of experiment: Ability of compounds to degrade c-Myc protein in HL60 cells (ELISA). Conditions: HL-60, 1 μM compound, 24 h, read-out: HL60 cells Protein degradation rate (1 μM). The format is cell-based. A general note: An ELISA detects its analyte on a solid surface through an enzyme-linked reagent.

For another experiment, the system named is HL60 cells. The experiment can be described thus: Anti-proliferation ability of compounds on HL60 cells (CTG). The format is cell-based, human. The conditions noted are these: 3 days, CellTiter-Glo, read-out: HL60 cells Proliferation inhibitory activity. In a few lines:
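HL60 cells (20000/well) exposed to serially diluted compounds (0.1% DMSO vehicle control) for 3 days. Viability read by CellTiter-Glo luminescence; IC50 fitted from inhibition rates.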

Each structure is given as a SMILES string. Like-named read-outs stand apart in the source and are kept apart here.

T1 sequence (P01106 whole entry): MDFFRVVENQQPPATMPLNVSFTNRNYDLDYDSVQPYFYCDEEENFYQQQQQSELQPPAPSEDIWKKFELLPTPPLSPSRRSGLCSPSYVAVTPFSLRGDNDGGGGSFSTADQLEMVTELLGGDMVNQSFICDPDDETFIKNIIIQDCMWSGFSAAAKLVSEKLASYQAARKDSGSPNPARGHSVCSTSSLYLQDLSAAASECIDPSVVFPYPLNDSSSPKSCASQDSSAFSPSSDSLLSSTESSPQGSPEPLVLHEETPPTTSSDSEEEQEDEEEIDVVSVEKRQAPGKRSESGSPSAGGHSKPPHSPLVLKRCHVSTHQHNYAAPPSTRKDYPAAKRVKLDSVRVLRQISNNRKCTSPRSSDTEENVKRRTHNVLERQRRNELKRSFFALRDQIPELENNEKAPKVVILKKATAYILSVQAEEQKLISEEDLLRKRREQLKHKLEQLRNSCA

In the case of `O=C1CCC(N2C(=O)c3ccc(C(=O)NCc4ccc(CN(CCc5cccc6ccccc56)c5ccccc5)cc4)cc3C2=O)C(=O)N1` (stereo not shown) [A94], the inhibition at 1 µM on c-Myc protein is 60 to 90%. In the experiment with HL60 cells (Homo sapiens, HL-60, 72 h), the IC50 is 289 ± 48.3 nM.
The like results for `CN(CCc1cccc2ccccc12)Cc1ccc(CNC(=O)c2ccc3c(c2)C(=O)N(C2CCC(=O)NC2=O)C3=O)cc1F` (stereo not shown) [A109] were, in that order, 60 to 90% and 5.5 ± 4.2 nM.
Take `O=C(Cn1c2ccccc2c2cccnc21)NCCc1ccc(CNC(=O)c2ccc3c(c2)C(=O)N(C2CCC(=O)NC2=O)C3=O)cc1` (stereo not shown) [A41]: at c-Myc protein, the inhibition at 1 µM lay in the range of 60 to 90%. For the same molecule, the IC50 with HL60 cells (Homo sapiens, HL-60, 72 h) turned out to be 155 ± 8.9 nM.
In the case of `CC(C)(C)OC(=O)NC[C@H]1CC[C@H](CNc2ccc3c(c2)C(=O)N(C2CCC(=O)NC2=O)C3=O)CC1` (stereo partly shown) [A28], at c-Myc protein, the inhibition at 1 µM fell in the range of 60 to 90%. Besides, the IC50 with HL60 cells (Homo sapiens, HL-60, 72 h) amounted to 5060 ± 137 nM.
Take `O=C(Cc1ccccc1)NCc1ccc(CNC(=O)c2ccc3c(c2)C(=O)N(C2CCC(=O)NC2=O)C3=O)cc1` (stereo not shown) [A53]: the inhibition at 1 µM at c-Myc protein fell in the range of 60 to 90%. Further, in the experiment on HL60 cells (Homo sapiens, HL-60, 72 h), the IC50 was found to be 1450 ± 280 nM.
The like results for `CN(Cc1ccc(CNC(=O)Cc2nccc3ccccc23)cc1)Cc1ccc2c(c1)C(=O)N(C1CCC(=O)NC1=O)C2=O` (stereo not shown) [A188] were, in that order, 30 to 60% and 279 ± 33.8 nM.
With `O=C(Cc1cccc2ccccc12)NCc1ccc(CNC(=O)c2ccc3c(c2)C(=O)N(C2CCC(=O)NC2=O)C3=O)cc1C(F)(F)F` (stereo not shown) [A121], on c-Myc protein, the inhibition at 1 µM lay within 60 to 90%. For the same molecule, the IC50 in the experiment on HL60 cells (Homo sapiens, HL-60, 72 h) amounted to 6.3 ± 3 nM.
On the same counts, the results for `O=C(Cc1c(F)ccc2ccccc12)NCc1ccc(CNC(=O)c2ccc3c(c2)CN(C2CCC(=O)NC2=O)C3=O)c(C(F)(F)F)c1` (stereo not shown) [A161] are 60 to 90% and 0.9 ± 0.1 nM.
On the same counts, the results for `O=C(Cn1c2ccccc2c2cccnc21)NCc1ccc(C2(NC(=O)c3ccc4c(c3)C(=O)N(C3CCC(=O)NC3=O)C4=O)CC2)cc1` (stereo not shown) [A138] are 60 to 90% and 12.4 ± 4.4 nM.
In the case of `CN(CCn1c2ccccc2c2cccnc21)Cc1ccc(CNCc2ccc3c(c2)C(=O)N(C2CCC(=O)NC2=O)C3=O)cc1` (stereo not shown) [A182], the inhibition at 1 µM on c-Myc protein was in the range of 60 to 90%. The IC50 in the experiment with HL60 cells (Homo sapiens, HL-60, 72 h) is 1.1 ± 0.8 nM.
On the same counts, the results for `O=C(CN1CCCc2ccccc21)NCc1ccc(CNC(=O)c2ccc3c(c2)CN(C2CCC(=O)NC2=O)C3=O)cc1` (stereo not shown) [A200] are 60 to 90% and 2.5 ± 1 nM.
Take `CN(CCc1ccc(Cl)c(Cl)c1)Cc1ccc(CNC(=O)c2ccc3c(c2)C(=O)N(C2CCC(=O)NC2=O)C3=O)cc1` (stereo not shown) [A101]: the inhibition at 1 µM at c-Myc protein was 60 to 90%. In addition, the IC50 with HL60 cells (Homo sapiens, HL-60, 72 h) worked out at 0.4 nM.
On the same counts, the results for `O=C1CCC(N2C(=O)c3ccc(C(=O)NCc4ccc(CNC(=O)Nc5cccc6ccccc56)cc4)cc3C2=O)C(=O)N1` (stereo not shown) [A45] are 60 to 90% and 61.6 ± 21 nM.
The like results for `O=C(Cn1c2ccccc2c2cccnc21)NC[C@H]1CC[C@H](CNC(=O)c2ccc3c(c2)C(=O)N(C2CCC(=O)NC2=O)C3=O)CC1` (stereo partly shown) [A24] were, in that order, 30 to 60% and 103 ± 53.2 nM.
On the same counts, the results for `CN(CCn1c2ccccc2c2cccnc21)Cc1ccc(CNC(=O)c2ccc3c(c2)C(=O)N(C2CCC(=O)NC2=O)C3=O)c(F)c1` (stereo not shown) [A106] are 60 to 90% and 4.2 nM.
Consider `CN(CCc1cccc2ccccc12)Cc1ccc(CNC(=O)c2ccc3c(c2)C(=O)N(C2CCC(=O)NC2=O)C3=O)c(F)c1` (stereo not shown) [A105], for which, at c-Myc protein, the inhibition at 1 µM lay in the range of 60 to 90%. Further, in the experiment on HL60 cells (Homo sapiens, HL-60, 72 h), the IC50 stood at 8.3 ± 1.9 nM.
On the same counts, the results for `O=C(Cc1cccc2ccccc12)NCCCCCCNC(=O)c1ccc2c(c1)C(=O)N(C1CCC(=O)NC1=O)C2=O` (stereo not shown) [A8] are 30 to 60% and 69.8 ± 8.8 nM.
Turning to `O=C(Cn1c2ccccc2c2cccnc21)NCCCCCCCCNc1ccc2c(c1)C(=O)N(C1CCC(=O)NC1=O)C2=O` (stereo not shown) [A16], the inhibition at 1 µM on c-Myc protein was in the range of 60 to 90%. The IC50 in the experiment on HL60 cells (Homo sapiens, HL-60, 72 h) is 21.2 ± 6.1 nM.
On the same counts, the results for `O=C1CCC(N2C(=O)c3ccc(C(=O)NCCCCCCNC(=O)n4c5ccccc5c5ccccc54)cc3C2=O)C(=O)N1` (stereo not shown) [A12] are 30 to 60% and 1060 ± 62 nM.
For `O=C(Cn1c2ccccc2c2cccnc21)NCc1cnc(CNC(=O)c2ccc3c(c2)C(=O)N(C2CCC(=O)NC2=O)C3=O)nc1` (stereo not shown) [A131], the inhibition at 1 µM on c-Myc protein fell in the range of 60 to 90%. Further, in the experiment with HL60 cells (Homo sapiens, HL-60, 72 h), the IC50 came out at 112 ± 16.5 nM.
On the same counts, the results for `O=C1CCC(N2C(=O)c3ccc(C(=O)NC[C@H]4CC[C@H](CNC(=O)Nc5cncc6ccccc56)CC4)cc3C2=O)C(=O)N1` (stereo partly shown) [A52] are 30 to 60% and 8060 ± 637 nM.
On the same counts, the results for `O=C1CCC(N2C(=O)c3ccc(C(=O)NCc4ccc(CNC(=O)C5(c6ccccc6Br)CC5)cc4)cc3C2=O)C(=O)N1` (stereo not shown) [A70] are 60 to 90% and 374 ± 51.1 nM.
Turning to `O=C(Cc1cccc2ccccc12)NCCCCCCCCOc1ccc2c(c1)C(=O)N(C1CCC(=O)NC1=O)C2=O` (stereo not shown) [A17], the inhibition at 1 µM on c-Myc protein is 30 to 60%. Further, the IC50 in the experiment with HL60 cells (Homo sapiens, HL-60, 72 h) came out at 3590 ± 1180 nM.
For `CN(CCc1cccc2ccccc12)Cc1ccc(CC(=O)Nc2ccc3c(c2)C(=O)N(C2CCC(=O)NC2=O)C3=O)cc1` (stereo not shown) [A167], the inhibition at 1 µM on c-Myc protein was 60 to 90%. Besides, in the experiment with HL60 cells (Homo sapiens, HL-60, 72 h), the IC50 was determined as 2.1 ± 1.1 nM.
The like results for `CC(C)N(CCc1cccc2ccccc12)Cc1ccc(CNC(=O)c2ccc3c(c2)C(=O)N(C2CCC(=O)NC2=O)C3=O)cc1` (stereo not shown) [A85] were, in that order, 60 to 90% and 21.3 ± 10.9 nM.
Take `O=C(Cc1cccc2ccccc12)NCc1ccc(COCc2ccc3c(c2)C(=O)N(C2CCC(=O)NC2=O)C3=O)cc1` (stereo not shown) [A191]: at c-Myc protein, the inhibition at 1 µM lay in the range of 60 to 90%. The IC50 in the experiment on HL60 cells (Homo sapiens, HL-60, 72 h) came out at 16.9 ± 2.2 nM.
Take `NCC(=O)OCN1C(=O)CCC(N2Cc3cc(C(=O)NCc4ccc(CNC(=O)Cn5c6ccccc6c6cccnc65)cc4)ccc3C2=O)C1=O` (stereo not shown) [A227]: the inhibition at 1 µM on c-Myc protein lay in the range of 30 to 60%. Also, the IC50 with HL60 cells (Homo sapiens, HL-60, 72 h) stood at 0.6 ± 0.1 nM.
For the molecule `CC(C)(NC(=O)c1ccc2c(c1)C(=O)N(C1CCC(=O)NC1=O)C2=O)c1ccc(CNC(=O)Cc2cccc3ccccc23)cc1` (stereo not shown) [A145], the inhibition at 1 µM at c-Myc protein fell in the range of 60 to 90%. Moreover, in the experiment with HL60 cells (Homo sapiens, HL-60, 72 h), the IC50 came to 117.7 ± 1.1 nM.
On the same counts, the results for `O=C(Cc1ccc(Cl)cc1)NCc1ccc(CNC(=O)c2ccc3c(c2)C(=O)N(C2CCC(=O)NC2=O)C3=O)cc1` (stereo not shown) [A59] are 60 to 90% and 173 ± 61.3 nM.
On to `CN(CCn1c2ccccc2c2cccnc21)Cc1ccc(CNC(=O)c2ccc3c(c2)C(=O)N(C2CCC(=O)NC2=O)C3=O)cn1` (stereo not shown) [A130], for which the inhibition at 1 µM at c-Myc protein was in the range of 60 to 90%. In the experiment with HL60 cells (Homo sapiens, HL-60, 72 h), the IC50 came to 4.7 ± 2.3 nM.
Regarding `O=C(Cn1c2ccccc2c2cccnc21)NCc1ccc(CNC(=O)c2ccc3c(c2)CN(C2CCC(=O)NC2=O)C3=O)c(C(F)(F)F)c1` (stereo not shown) [A160], the inhibition at 1 µM on c-Myc protein lay within 60 to 90%. Also, the IC50 in the experiment on HL60 cells turned out to be 0.4 ± 0.3 nM.
Turning to `O=C1CCC(N2C(=O)c3ccc(C(=O)NC[C@H]4CC[C@H](CNC(=O)Nc5cccc6cnccc56)CC4)cc3C2=O)C(=O)N1` (stereo partly shown) [A49], the inhibition at 1 µM at c-Myc protein was 60 to 90%. The IC50 in the experiment on HL60 cells (Homo sapiens, HL-60, 72 h) stood at 6820 ± 1630 nM.
As to `CC(C)N(CCc1cccc(Cl)c1Cl)Cc1ccc(CNC(=O)c2ccc3c(c2)C(=O)N(C2CCC(=O)NC2=O)C3=O)cc1` (stereo not shown) [A87], the inhibition at 1 µM on c-Myc protein lay in the range of 60 to 90%. Moreover, in the experiment with HL60 cells (Homo sapiens, HL-60, 72 h), the IC50 amounted to 11.5 nM.
On the same counts, the results for `CN(Cc1ccc(CNC(=O)c2ccc3c(c2)C(=O)N(C2CCC(=O)NC2=O)C3=O)cc1)C(=O)Cc1cccc2ccccc12` (stereo not shown) [A71] are 60 to 90% and 24.3 ± 8.5 nM.
On the same counts, the results for `O=C(Cc1cccc2ccccc12)NCc1ccc(CNC(=O)c2ccc3c(c2)C(=O)N(C2CCC(=O)NC2=O)C3=O)cc1F` (stereo not shown) [A107] are 60 to 90% and 3.4 nM.
